Counter-ions that a name gives are not always drawn.
How the values were obtained:
[1] = biological target: T1, D2 receptors in striatum (Rattus norvegicus, UniProt P61169); test: Binding of intravenously injected radioligand in rat striatum, alone and co-injected with NPA (Examples 2 and 3); format: in vivo, Sprague-Dawley rats
T1 construct: from tissue; host or cells: striatum of Sprague-Dawley rats (in vivo labelling)
Source text: In describing and validating the method of the present invention using rats instead of humans, there are certain considerations that should be noted. For example, each rat is not imaged, but is guillotined, and the striatum removed in order to measure the radioactivity in DPM/mg tissue, where DPM represents disintegrations per minute.
Sprague-Dawley rats (275-300 g) were restrained in transparent polystyrene cages. The tail vein was warmed in warm water.

[2] = biological target: D1 receptor (Homo sapiens, UniProt P21728); conditions: D1^High state; read-out: dissociation constant for the high-affinity state of the D1 receptor; cited from earlier work
[3] = 25 μg/Kg NPA co-injected i.v., rats, n=6
[4] = rat striatum, radioligand co-injected i.v. with NPA 25 μg/kg

T1 sequence (P61169 whole entry): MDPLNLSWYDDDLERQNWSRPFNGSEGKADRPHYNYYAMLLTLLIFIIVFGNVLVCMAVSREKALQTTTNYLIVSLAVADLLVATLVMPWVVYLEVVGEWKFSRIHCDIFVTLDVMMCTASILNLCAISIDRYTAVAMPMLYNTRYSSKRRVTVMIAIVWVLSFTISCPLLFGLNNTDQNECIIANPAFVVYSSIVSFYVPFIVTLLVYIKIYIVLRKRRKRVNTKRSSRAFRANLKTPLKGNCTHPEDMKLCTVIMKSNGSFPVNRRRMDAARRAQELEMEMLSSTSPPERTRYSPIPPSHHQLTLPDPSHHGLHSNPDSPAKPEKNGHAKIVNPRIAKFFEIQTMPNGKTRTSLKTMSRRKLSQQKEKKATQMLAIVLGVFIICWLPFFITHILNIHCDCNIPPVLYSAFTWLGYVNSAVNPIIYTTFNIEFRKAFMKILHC
Sequence of D1 receptor (P21728 whole entry): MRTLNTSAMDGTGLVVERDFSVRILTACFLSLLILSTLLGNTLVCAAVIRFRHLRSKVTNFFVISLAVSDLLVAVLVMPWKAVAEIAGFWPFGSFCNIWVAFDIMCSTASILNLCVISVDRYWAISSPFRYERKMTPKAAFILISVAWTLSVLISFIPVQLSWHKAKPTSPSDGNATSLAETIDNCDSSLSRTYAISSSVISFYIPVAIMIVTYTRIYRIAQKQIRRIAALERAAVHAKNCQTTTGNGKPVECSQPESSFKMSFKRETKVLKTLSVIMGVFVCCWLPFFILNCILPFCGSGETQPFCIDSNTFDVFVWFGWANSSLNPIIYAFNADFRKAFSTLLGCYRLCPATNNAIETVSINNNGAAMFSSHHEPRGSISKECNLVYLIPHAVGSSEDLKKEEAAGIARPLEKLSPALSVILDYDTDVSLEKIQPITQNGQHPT

CCCN1CCc2cccc3c2[C@H]1Cc1ccc(O)c(O)c1-3 [NPA, N-propyl-norapomorphine]
binding of radioactive raclopride, level of the control value ([1]; 25 μg/Kg NPA co-injected i.v., rats, mean ±s.e., n=6, P=0.0004 vs (+)PHNO): 61%±2.9 % of the control value
binding of radioactive (+)PHNO, level of the control value [1, 3]: 46 % of the control value
inhibition of the binding of radioactive raclopride [1, 3]: 39%
inhibition of the binding of radioactive (+)PHNO ([1]; 25 μg/Kg NPA co-injected i.v., rats, n=6, representative experiment): 54%
inhibition of the D2^High receptors ([1]; normal rats, NPA 25 μg/kg i.v. co-injected with radioactive (+)PHNO): 53%

CCN1CCC[C@H]1CNC(=O)c1c(O)c(Cl)cc(Cl)c1OC (racemic) [[^3H]Raclopride]
Control ([1]; rat striatum, 30 min after i.v. 0.1 nmol radioligand, no NPA): 2.8 pmol/g
Control DPM/mg (total binding in striatum) ([1]; rat striatum, 30 min after i.v. 0.1 nmol radioligand, no NPA, n=6): 37.9 DPM/mg
pmol/g Displaced by NPA ([1]; rat striatum, NPA 25 μg/kg co-injected): 1.09 pmol/g
With NPA [1, 4]: 1.71 pmol/g
With NPA DPM/mg [1, 4]: 23.13 DPM/mg

CCCN1CCOC2c3cc(O)ccc3CCC21 (single isomer, unassigned; (+)) [(+)PHNO, (+)-4-propyl-9-hydroxy-2,3,4a,5,6,10b-hexahydro-4H-naphth[1,2b][1,4]oxazine HCl]
Kd [2]: 80 nM

From patent US20080181848A1 (priority 2004, published 2008)
